Legend:
[1] = system: PC12 pheochromocytoma/paraganglioma cell line; experiment: Synergy of MBZ or HA-PLGA-MBZ with chemotherapeutic agents (Chou-Talalay CI, Cell Titer Glo); format: cell-based; settings: PC12 + Vincristine
Experimental: (§4) For in vitro experiments, cells were plated in triplicate and treated with a range of concentrations of MBZ and relevant chemotherapeutic agents in a complete Latin square.
(§5) Cells were plated in triplicate and treated with a range of 5 concentrations of MBZ in combination with 5 concentrations of chemotherapeutic agents in a complete Latin square. Following a 72 hour incubation, cell viability was determined using Cell Titer Glo.
(§6) In table 22 below, cells were plated in triplicate and treated with a range of 5 concentrations of MBZ or HA-PLGA-MBZ nanoparticles containing a molar equivalent of MBZ, and 5 concentrations of relevant chemotherapeutic agents in a complete Latin square. Combination indexes (CI) were determined based on the method described by Chou-Talalay with a CI value less than 0.9 indicating synergy. […] Numbers in parentheses represent the range of synergistic CI values for each cell line and drug combination.

U-CH2 chordoma cell line = experiment: MBZ cell viability dose response (CellTiter Glo); format: cell-based; settings: 72 hours, up to the highest concentration, 50 μM
Experimental: (§1) The effect of mebendazole administration on cell lines derived from exemplary cancers was tested. One approach to determining the effectiveness of mebendazole in the treatment of cancer comprises in vitro testing. In this approach, cancer cell lines representative of the cancers of the disclosure are cultured in vitro according to standard techniques (see, for example, Human Cell Culture Protocols, Third Edition, […] R. D. Hughes, Editors, Humana Press, 2012), and increasing concentrations of mebendazole are administered to determine the IC50 value. As used herein, the term “IC50 value” refers to the concentration of a compound (for example mebendazole) wherein the response to that compound (such as inhibited cellular viability) is reduced by half. The IC50 is thus a measure of the effectiveness of a compound in inhibiting a biological process. […] Based on this biology, several rare cancer tumor cell lines including neuroblastoma, rhabdomyosarcoma and Ewing sarcoma were analyzed for sensitivity to MBZ treatment in vitro. […] In all cases, including those described below, the viable cells were determined using the CellTiter Glo® kit and an IC50 curve was generated using the PRISM software. […] A dose response curve was generated using the PRISM software, with the intent of determining an IC50 for the cell lines following treatment of MBZ.

[2] = system: MUG-Chor1 chordoma cell line; experiment: MBZ cell viability dose response (CellTiter Glo); format: cell-based; settings: 72 hours, up to the highest concentration, 50 μM
Experimental: as §1

[3] = system: Rh-30 rhabdomyosarcoma cell line; experiment: MBZ cell viability IC50 (CellTiter Glo); format: cell-based; settings: Rh30, 72 hours
Experimental: (§2) The effect of mebendazole administration on cell lines derived from exemplary cancers was tested. One approach to determining the effectiveness of mebendazole in the treatment of cancer comprises in vitro testing. In this approach, cancer cell lines representative of the cancers of the disclosure are cultured in vitro according to standard techniques (see, for example, Human Cell Culture Protocols, Third Edition, […] R. D. Hughes, Editors, Humana Press, 2012), and increasing concentrations of mebendazole are administered to determine the IC50 value. As used herein, the term “IC50 value” refers to the concentration of a compound (for example mebendazole) wherein the response to that compound (such as inhibited cellular viability) is reduced by half. The IC50 is thus a measure of the effectiveness of a compound in inhibiting a biological process. […] Based on this biology, several rare cancer tumor cell lines including neuroblastoma, rhabdomyosarcoma and Ewing sarcoma were analyzed for sensitivity to MBZ treatment in vitro. […] In all cases, including those described below, the viable cells were determined using the CellTiter Glo® kit and an IC50 curve was generated using the PRISM software.

[4] = system: TC-32 Ewing's sarcoma cell line; experiment: MBZ cell viability IC50 (CellTiter Glo); format: cell-based; settings: Homo sapiens, 72 hours
Experimental: as §2

[5] = system: TC-71 Ewing's sarcoma cell line; experiment: MBZ cell viability IC50 (CellTiter Glo); format: cell-based; settings: 72 hours
Experimental: as §2

[6] = system: Rh-41 rhabdomyosarcoma cell line; experiment: MBZ cell viability IC50 (CellTiter Glo); format: cell-based; settings: Homo sapiens, Rh41, 72 hours
Experimental: as §2

[7] = system: SNU-16 gastric carcinoma cell line; experiment: MBZ cell viability IC50 (CellTiter Glo); format: cell-based; settings: Homo sapiens, 72 hours
Experimental: as §2

[8] = system: CHLA-9 Ewing's sarcoma cell line; experiment: MBZ cell viability IC50 (CellTiter Glo); format: cell-based; settings: 72 hours
Experimental: as §2

[9] = system: NCI-H295R adrenal cortical carcinoma cell line; experiment: MBZ cell viability IC50 (CellTiter Glo); format: cell-based; settings: Homo sapiens, 72 hours
Experimental: as §2

[10] = system: SW-13 adrenal cortical carcinoma cell line; experiment: MBZ cell viability IC50 (CellTiter Glo); format: cell-based; settings: Homo sapiens, SW13, 72 hours
Experimental: as §2

[11] = system: SK-UT-1B leiomyosarcoma cell line; experiment: MBZ cell viability IC50 (CellTiter Glo); format: cell-based; settings: Homo sapiens, Skut1B, 72 hours
Experimental: as §2

[12] = system: IMR-32 neuroblastoma cell line; experiment: MBZ cell viability IC50 (CellTiter Glo); format: cell-based; settings: Homo sapiens, 72 hours
Experimental: (§3) The effect of mebendazole administration on cell lines derived from exemplary cancers was tested. One approach to determining the effectiveness of mebendazole in the treatment of cancer comprises in vitro testing. In this approach, cancer cell lines representative of the cancers of the disclosure are cultured in vitro according to standard techniques (see, for example, Human Cell Culture Protocols, Third Edition, […] R. D. Hughes, Editors, Humana Press, 2012), and increasing concentrations of mebendazole are administered to determine the IC50 value. As used herein, the term “IC50 value” refers to the concentration of a compound (for example mebendazole) wherein the response to that compound (such as inhibited cellular viability) is reduced by half. The IC50 is thus a measure of the effectiveness of a compound in inhibiting a biological process. […] Based on this biology, several rare cancer tumor cell lines including neuroblastoma, rhabdomyosarcoma and Ewing sarcoma were analyzed for sensitivity to MBZ treatment in vitro. […] In all cases, including those described below, the viable cells were determined using the CellTiter Glo® kit and an IC50 curve was generated using the PRISM software. […] The neuroblastoma cell lines IMR-32, CHP-212, and SK-N-AS were treated with ten serial dilutions of mebendazole for 72 hours.

[13] = system: SK-N-AS neuroblastoma cell line; experiment: MBZ cell viability IC50 (CellTiter Glo); format: cell-based; settings: Homo sapiens, 72 hours
Experimental: as §3

[14] = system: CHP-212 neuroblastoma cell line; experiment: MBZ cell viability IC50 (CellTiter Glo); format: cell-based; settings: Homo sapiens, 72 hours
Experimental: as §3

SK-UT-1 cells = experiment: MBZ vs HA-PLGA-MBZ cell viability IC50 (Cell Titer Glo); format: cell-based; settings: Homo sapiens, 72 hour incubation
Description: An IC50 for each treatment was established using the PRISM software.

[15] = system: rare cancer tumor cell lines including neuroblastoma, rhabdomyosarcoma and Ewing sarcoma; experiment: MBZ cell viability IC50 across rare cancer tumor cell lines; format: cell-based; settings: several rare cancer tumor cell lines; 72 hours; read-out: IC50s (range over cell lines)
Experimental: as §2

[16] = system: SNU16 gastric carcinoma cells; experiment: Synergy of MBZ or HA-PLGA-MBZ with chemotherapeutic agents (Chou-Talalay CI, Cell Titer Glo); format: cell-based; settings: SNU16 + 5-FU
Experimental: as §4, §5, §6

[17] = Tolerability of daily oral MBZ dosing in ACC PDX mice; format: in vivo; settings: athymic nude mice with ACC PDX tumors; 50 or 200 mg/kg daily
Experimental: Despite a deepening understanding of the molecular events that lead to sustained tumor growth, there are currently no approved therapies for ACC. Identification of therapies for ACC has been hampered by the lack of ACC cell lines and transgenic mouse models. To circumvent these issues, the activity of MBZ was tested in several ACC patient-derived xenograft (PDX) models. Athymic nude mice were implanted subcutaneously with PDX tumors and treatment was initiated when tumors reached a size of 125-300 mm^3. Mice were randomized into three treatment groups to receive daily treatment with vehicle or MBZ at either 50 or 200 mg/kg for the duration of the study. Tumor size was measured twice weekly.

Q: What does the source list for `COC(=O)Nc1nc2ccc(C(=O)c3ccccc3)cc2[nH]1` [MBZ, methyl N-(6-benzoyl-1H-benzimidazol-2-yl)carbamate]?
A: range of synergistic CI values [1]: Yes- (0.274-0.870); sensitivity to MBZ treatment (dose response) (U-CH2 chordoma cell line): largely resistant; sensitivity to MBZ treatment (dose response) [2]: largely resistant; IC50 [3]: 0.1 µM; IC50 [4]: 0.41 µM; IC50 [5]: 0.47 µM; IC50 [6]: 0.49 µM; IC50 [7]: 0.42 µM; IC50 [8]: 1.02 µM; IC50 [9]: 0.1 µM; IC50 [10]: 0.26 µM; IC50 [11]: 0.1 µM; IC50 [12]: 0.05 µM; IC50 [13]: 0.68 µM; IC50 [14]: 0.13 µM; IC50 (SK-UT-1 cells): 0.26 µM; IC50 [15]: 0.05 to 1 µM; range of synergistic CI values [16]: 0.223-0.837; tolerability of daily oral dosing [17]: well tolerated with no overt toxicities

Source: patent US20190175560A1, “MEBENDAZOLE CANCER THERAPIES AND METHODS OF USE” (Shepherd Therapeutics, Inc., priority 2017, published 2019)
